Data published in ChEMBL document CHEMBL1201862, “PubChem BioAssay data set” (2004).
Structures can show the parent of a compound that is named as a salt.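 Method: 48-hour compound exposure of cells in 96-well plates, five concentrations, linear interpolation of endpoints. GI50: concentration for 50% inhibition of growth.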 Calls of active or inactive are those of the source. No stated cut-off is given here; in the data, active = GI50 up to about 1.1 µM and inactive = higher.

Experiments:
Test in all cases: NCI anticancer screen, dose series, 48 h
LXFL 529 = tested on: LXFL 529
NCI-H23 = tested on: NCI-H23
XF498 = tested on: XF498
HOP-92 = tested on: HOP-92
DMS-273 = tested on: DMS-273
NCI-H226 = tested on: NCI-H226
COLO 205 = tested on: COLO 205
OVCAR-4 = tested on: OVCAR-4
OVCAR-3 = tested on: OVCAR-3
HCT-116 = tested on: HCT-116
HOP-18 = tested on: HOP-18
NCI-H460 = tested on: NCI-H460
MOLT-4 = tested on: MOLT-4
SF-268 = tested on: SF-268
OVCAR-5 = tested on: OVCAR-5
DMS-114 = tested on: DMS-114
LOX IMVI = tested on: LOX IMVI
SK-MEL-5 = tested on: SK-MEL-5
SNB-19 = tested on: SNB-19
SK-MEL-2 = tested on: SK-MEL-2
HL-60 = tested on: HL-60
SN12C = tested on: SN12C
MDA-MB-435 = tested on: MDA-MB-435
KM-20L2 = tested on: KM-20L2
Malme-3M = tested on: Malme-3M
SF-295 = tested on: SF-295
786-0 = tested on: 786-0
M14 = tested on: M14
CAKI-1 = tested on: CAKI-1
KM12 = tested on: KM12
TK-10 = tested on: TK-10
UACC-257 = tested on: UACC-257
U-251 = tested on: U-251
A498 = tested on: A498
RPMI-8226 = tested on: RPMI-8226
SW-620 = tested on: SW-620
UO-31 = tested on: UO-31
OVCAR-8 = tested on: OVCAR-8
HT-29 = tested on: HT-29
DLD-1 = tested on: DLD-1
SF-539 = tested on: SF-539
CCRF-CEM = tested on: CCRF-CEM
K562 = tested on: K562
NCI-H522 = tested on: NCI-H522
SK-MEL-28 = tested on: SK-MEL-28
M19-MEL = tested on: M19-MEL
SK-OV-3 = tested on: SK-OV-3
ACHN = tested on: ACHN
A549 = tested on: A549
RXF 393 = tested on: RXF 393
HOP-62 = tested on: HOP-62
EKVX = tested on: EKVX
SR = tested on: SR
SNB-75 = tested on: SNB-75
HCC 2998 = tested on: HCC 2998
UACC-62 = tested on: UACC-62
DU-145 = tested on: DU-145
IGROV-1 = tested on: IGROV-1
MCF7 = tested on: MCF7
SNB-78 = tested on: SNB-78
PC-3 = tested on: PC-3
HCT-15 = tested on: HCT-15
T47D = tested on: T47D

## COC1CC(C)C(OC)C2=CC(=O)C=C(NC(=O)/C(C)=C/C=C\C(C)C(OC(N)=O)/C(C)=C\C(C)C1OC)C2=O (stereo unspecified)
LXFL 529
  GI50: 191 nM (active)
NCI-H23
  GI50: 447 nM (active)
XF498
  GI50: 681 nM (active)
HOP-92
  GI50: 313 nM (active)
DMS-273
  GI50: 239 nM (active)
NCI-H226
  GI50: 6150 nM (inactive)
COLO 205
  GI50: 41.4 nM (active)
OVCAR-4
  GI50: 834 nM (active)
OVCAR-3
  GI50: 313 nM (active)
HCT-116
  GI50: 313 nM (active)
HOP-18
  GI50: 179 nM (active)
NCI-H460
  GI50: 422 nM (active)
MOLT-4
  GI50: 53.5 nM (active)
SF-268
  GI50: 1310 nM (inactive)
OVCAR-5
  GI50: 3200 nM (inactive)
DMS-114
  GI50: 403 nM (active)
LOX IMVI
  GI50: 379 nM (active)
SK-MEL-5
  GI50: 804 nM (active)
SNB-19
  GI50: 495 nM (active)
SK-MEL-2
  GI50: 525 nM (active)
HL-60
  GI50: 182 nM (active)
SN12C
  GI50: 296 nM (active)
MDA-MB-435
  GI50: 72.1 nM (active)
KM-20L2
  GI50: 202 nM (active)
Malme-3M
  GI50: 334 nM (active)
SF-295
  GI50: 1070 nM (active)
786-0
  GI50: 902 nM (active)
M14
  GI50: 589 nM (active)
CAKI-1
  GI50: 2520 nM (inactive)
KM12
  GI50: 521 nM (active)
TK-10
  GI50: 2090 nM (inactive)
UACC-257
  GI50: 261 nM (active)
U-251
  GI50: 370 nM (active)
A498
  GI50: 11700 nM (inactive)
RPMI-8226
  GI50: 313 nM (active)
SW-620
  GI50: 48.5 nM (active)
UO-31
  GI50: 4830 nM (inactive)
OVCAR-8
  GI50: 1670 nM (inactive)
HT-29
  GI50: 244 nM (active)
DLD-1
  GI50: 804 nM (active)
SF-539
  GI50: 355 nM (active)
CCRF-CEM
  GI50: 117 nM (active)
K562
  GI50: 114 nM (active)
NCI-H522
  GI50: 90.8 nM (active)
SK-MEL-28
  GI50: 166 nM (active)
M19-MEL
  GI50: 441 nM (active)
SK-OV-3
  GI50: 357 nM (active)
ACHN
  GI50: 1250 nM (inactive)
A549
  GI50: 2900 nM (inactive)
RXF 393
  GI50: 337 nM (active)
HOP-62
  GI50: 1480 nM (inactive)
EKVX
  GI50: 11000 nM (inactive)
SR
  GI50: 68.2 nM (active)
SNB-75
  GI50: 762 nM (active)
HCC 2998
  GI50: 665 nM (active)
UACC-62
  GI50: 492 nM (active)
DU-145
  GI50: 643 nM (active)
IGROV-1
  GI50: 2970 nM (inactive)
MCF7
  GI50: 62.1 nM (active)
SNB-78
  GI50: 1710 nM (inactive)
PC-3
  GI50: 11500 nM (inactive)
HCT-15
  GI50: 1330 nM

## CC1=C(C(=O)Nc2ccccc2C)C(c2ccc(C3C(C(=O)Nc4ccccc4C)=CNC=C3C(=O)Nc3ccccc3C)cc2)C(C(=O)Nc2ccccc2C)=C(C)N1
LXFL 529
  GI50: 10900 nM (inactive)
NCI-H23
  GI50: 19100 nM (inactive)
XF498
  GI50: 22800 nM (inactive)
HOP-92
  GI50: 22400 nM (inactive)
DMS-273
  GI50: 20700 nM (inactive)
NCI-H226
  GI50: 17000 nM (inactive)
COLO 205
  GI50: 21000 nM (inactive)
OVCAR-4
  GI50: 14700 nM (inactive)
OVCAR-3
  GI50: 20300 nM (inactive)
HCT-116
  GI50: 19500 nM (inactive)
HOP-18
  GI50: 37000 nM (inactive)
NCI-H460
  GI50: 21400 nM (inactive)
MOLT-4
  GI50: 4500 nM (inactive)
SF-268
  GI50: 11400 nM (inactive)
OVCAR-5
  GI50: 21600 nM (inactive)
DMS-114
  GI50: 23300 nM (inactive)
LOX IMVI
  GI50: 7080 nM (inactive)
SK-MEL-5
  GI50: 12900 nM (inactive)
SNB-19
  GI50: 19800 nM (inactive)
SK-MEL-2
  GI50: 15700 nM (inactive)
HL-60
  GI50: 8000 nM (inactive)
SN12C
  GI50: 14800 nM (inactive)
KM-20L2
  GI50: 14700 nM (inactive)
Malme-3M
  GI50: 19100 nM (inactive)
SF-295
  GI50: 19300 nM (inactive)
786-0
  GI50: 15100 nM (inactive)
M14
  GI50: 16800 nM (inactive)
CAKI-1
  GI50: 21300 nM (inactive)
KM12
  GI50: 14100 nM (inactive)
TK-10
  GI50: 49700 nM (inactive)
UACC-257
  GI50: 17100 nM (inactive)
U-251
  GI50: 12200 nM (inactive)
A498
  GI50: 20700 nM (inactive)
RPMI-8226
  GI50: 15800 nM (inactive)
SW-620
  GI50: 14600 nM (inactive)
UO-31
  GI50: 18700 nM (inactive)
OVCAR-8
  GI50: 25600 nM (inactive)
HT-29
  GI50: 14400 nM (inactive)
DLD-1
  GI50: 13600 nM (inactive)
SF-539
  GI50: 14400 nM (inactive)
CCRF-CEM
  GI50: 3150 nM (inactive)
K562
  GI50: 9270 nM (inactive)
NCI-H522
  GI50: 6680 nM (inactive)
SK-MEL-28
  GI50: 17900 nM (inactive)
M19-MEL
  GI50: 23800 nM (inactive)
SK-OV-3
  GI50: 27300 nM (inactive)
ACHN
  GI50: 16400 nM (inactive)
A549
  GI50: 40600 nM (inactive)
RXF 393
  GI50: 47200 nM (inactive)
HOP-62
  GI50: 25400 nM (inactive)
EKVX
  GI50: 17900 nM (inactive)
SR
  GI50: 3220 nM (inactive)
SNB-75
  GI50: 19500 nM (inactive)
HCC 2998
  GI50: 17800 nM (inactive)
UACC-62
  GI50: 12700 nM (inactive)
IGROV-1
  GI50: 18600 nM (inactive)
SNB-78
  GI50: 30200 nM (inactive)
HCT-15
  GI50: 16800 nM

## CC[C@]1(O)C[C@H]2CN(CCc3c([nH]c4ccccc34)[C@@](C(=O)OC)(c3cc4c(cc3OC)N(C=O)[C@H]3[C@@](O)(C(=O)OC)[C@H](OC(C)=O)[C@]5(CC)C=CCN6CC[C@]43[C@@H]65)C2)C1 [VINCRISTINE SULFATE]
LXFL 529
  GI50: 100 nM (active)
NCI-H23
  GI50: 112 nM (active)
XF498
  GI50: 135 nM (active)
HOP-92
  GI50: 137 nM (active)
DMS-273
  GI50: 100 nM (active)
COLO 205
  GI50: 133 nM (active)
OVCAR-3
  GI50: 125 nM (active)
HCT-116
  GI50: 132 nM (active)
HOP-18
  GI50: 20800 nM (inactive)
NCI-H460
  GI50: 105 nM (active)
SF-268
  GI50: 172 nM (active)
OVCAR-5
  GI50: 22200 nM (inactive)
DMS-114
  GI50: 121 nM (active)
SNB-19
  GI50: 131 nM (active)
SK-MEL-2
  GI50: 132 nM (active)
KM-20L2
  GI50: 106 nM (active)
Malme-3M
  GI50: 333 nM (active)
T47D
  GI50: 175000 nM (inactive)
CAKI-1
  GI50: 140 nM (active)
U-251
  GI50: 132 nM (active)
A498
  GI50: 126 nM (active)
UO-31
  GI50: 2100 nM (inactive)
DLD-1
  GI50: 106 nM (active)
CCRF-CEM
  GI50: 131 nM (active)
NCI-H522
  GI50: 119 nM (active)
SK-MEL-28
  GI50: 1310 nM (inactive)
M19-MEL
  GI50: 142 nM (active)
SK-OV-3
  GI50: 288 nM (active)
ACHN
  GI50: 176 nM (active)
RXF 393
  GI50: 161 nM (active)
HOP-62
  GI50: 225 nM (active)
EKVX
  GI50: 2360 nM (inactive)
SR
  GI50: 100 nM (active)
SNB-75
  GI50: 430 nM (active)
SNB-78
  GI50: 163 nM (active)
HCT-15
  GI50: 137 nM
